# Measured values from patent US20220089575A1, “FARNESOID X RECEPTOR AGONISTS AND USES THEREOF” (Metacrine, Inc., priority 2017, published 2022).
# Molecular target: T1, hFXR (Homo sapiens, UniProt Q96RI1)
# T1 construct: expressed in transfected cells; host or cells: CV-1 cells
# T1 sequence (Q96RI1 1-486): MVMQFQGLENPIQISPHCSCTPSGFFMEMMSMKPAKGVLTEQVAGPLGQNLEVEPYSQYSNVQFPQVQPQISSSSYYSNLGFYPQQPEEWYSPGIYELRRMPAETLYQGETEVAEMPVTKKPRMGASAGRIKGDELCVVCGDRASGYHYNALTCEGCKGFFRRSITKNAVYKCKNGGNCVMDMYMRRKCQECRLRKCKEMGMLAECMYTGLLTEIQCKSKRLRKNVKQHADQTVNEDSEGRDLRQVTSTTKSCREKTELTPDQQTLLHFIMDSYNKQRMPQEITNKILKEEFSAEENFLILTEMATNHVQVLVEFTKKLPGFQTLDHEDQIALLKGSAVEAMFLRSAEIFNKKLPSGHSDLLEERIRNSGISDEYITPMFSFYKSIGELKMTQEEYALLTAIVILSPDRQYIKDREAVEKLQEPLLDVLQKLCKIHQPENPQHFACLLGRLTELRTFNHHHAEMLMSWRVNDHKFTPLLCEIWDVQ
# T1 sequence (P19793 1-462 partner): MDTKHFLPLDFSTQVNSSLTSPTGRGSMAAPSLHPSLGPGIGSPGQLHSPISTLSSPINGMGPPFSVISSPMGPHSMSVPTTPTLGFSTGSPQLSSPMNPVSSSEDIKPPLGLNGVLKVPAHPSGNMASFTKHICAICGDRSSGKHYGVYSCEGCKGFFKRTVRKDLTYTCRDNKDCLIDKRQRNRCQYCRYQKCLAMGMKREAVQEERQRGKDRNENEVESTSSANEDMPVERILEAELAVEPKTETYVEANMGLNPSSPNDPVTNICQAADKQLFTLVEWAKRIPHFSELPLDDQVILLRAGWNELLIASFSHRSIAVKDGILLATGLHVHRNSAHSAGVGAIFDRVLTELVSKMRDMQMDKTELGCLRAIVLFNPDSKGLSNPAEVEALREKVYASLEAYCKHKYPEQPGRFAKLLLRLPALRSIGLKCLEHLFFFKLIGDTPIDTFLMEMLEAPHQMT
# Assay: In Vitro FXR Assay (TK): TK-ECRE-luc reporter in transfected CV-1 cells
# Type: cell-based
# Conditions: 18 hrs, luminescence, maximum efficacy of <25% of the Fexarmine control classified as '+'
# Procedure, shortened: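 CV-1, transient co-transfection: hFXR + hRXR + TK-ECRE-luc + pCMX-YFP; charcoal-stripped serum. 18 h post-transfection, DMSO serial dilutions of cpd added; 18 h incubation; lysis, luminescence.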
row,SMILES,EC50 [nM]
1,"COc1ccc([C@H]2CC[C@H](CN(c3cccc(-c4coc(C5CC5)n4)c3)C(=O)[C@H]3CC[C@H](OC(=O)NCCO)CC3)CC2)cc1C#N [Compound 6.53, trans-4-(((trans-4-(3-Cyano-4-methoxyphenyl)cyclohexyl)methyl)(3-(2-cyclopropyloxazol-4-yl)phenyl)carbamoyl)cyclohexyl (2-hydroxyethyl)carbamate]",≤ 250
2,"COc1ccc([C@H]2CC[C@H](CN(c3cc(-c4coc(C5CC5)n4)ccn3)C(=O)[C@H]3CC[C@H](OC(=O)NCCO)CC3)CC2)cc1C#N [Compound 6.54, trans-4-(((trans-4-(3-Cyano-4-methoxyphenyl)cyclohexyl)methyl)(4-(2-cyclopropyloxazol-4-yl)pyridine-2-yl)carbamoyl)cyclohexyl (2-hydroxyethyl)carbamate]",≤ 250
3,"COc1ccc([C@H]2CC[C@H](CN(c3cccc(-c4coc(C5CC5)n4)c3)C(=O)[C@H]3CC[C@H](OC(=O)NCCO)CC3)CC2)nc1C#N [Compound 6.55, trans-4-(((trans-4-(6-Cyano-5-methoxypyridin-2-yl)cyclohexyl)methyl)(3-(2-cyclopropyloxazol-4-yl)phenyl)carbamoyl)cyclohexyl (2-hydroxyethyl)carbamate]",≤ 250
4,"COCCNC(=O)O[C@H]1CC[C@H](C(=O)N(C[C@H]2CC[C@H](c3ccc(OC)c(C)n3)CC2)c2cc(-c3coc(C4CC4)n3)ccn2)CC1 [Compound 6.56, trans-4-((4-(2-Cyclopropyloxazol-4-yl)pyridine-2-yl)((trans-4-(5-methoxy-6-methylpyridin-2-yl)cyclohexyl)methyl)carbamoyl)cyclohexyl (2-methoxyethyl) carbamate]",≤ 250
5,"COc1ccc([C@H]2CC[C@H](CN(c3cc(-c4coc(C5CC5)n4)ccn3)C(=O)[C@H]3CC[C@H](OC(=O)NC4CC4)CC3)CC2)nc1C [Compound 6.57, trans-4-((4-(2-Cyclopropyloxazol-4-yl)pyridine-2-yl)((trans-4-(5-methoxy-6-methylpyridin-2-yl)cyclohexyl)methyl)carbamoyl)cyclohexyl cyclopropylcarbamate]",≤ 250
6,"COc1ccc([C@H]2CC[C@H](CN(c3cc(-c4coc(C5CC5)n4)ccn3)C(=O)[C@H]3CC[C@H](OC(=O)NC(C)C)CC3)CC2)nc1C [Compound 6.58, trans-4-((4-(2-Cyclopropyloxazol-4-yl)pyridine-2-yl)((trans-4-(5-methoxy-6-methylpyridin-2-yl)cyclohexyl)methyl)carbamoyl)cyclohexyl isopropylcarbamate]",≤ 250
7,"COc1ccc([C@H]2CC[C@H](CN(c3cc(-c4coc(C5CC5)n4)ccn3)C(=O)[C@H]3CC[C@H](OC(=O)N4CCOCC4)CC3)CC2)nc1C [Compound 6.59, trans-4-((4-(2-Cyclopropyloxazol-4-yl)pyridine-2-yl)((trans-4-(5-methoxy-6-methylpyridin-2-yl)cyclohexyl)methyl)carbamoyl)cyclohexyl morpholine-4-carboxylate]",≤ 250
8,"COc1ccc([C@H]2CC[C@H](CN(c3cc(-c4coc(C5CC5)n4)ccn3)C(=O)[C@H]3CC[C@H](OC(=O)NC4COC4)CC3)CC2)nc1C [Compound 6.60, trans-4-((4-(2-Cyclopropyloxazol-4-yl)pyridine-2-yl)((trans-4-(5-methoxy-6-methylpyridin-2-yl)cyclohexyl)methyl)carbamoyl)cyclohexyl oxetan-3-ylcarbamate]",≤ 250
9,COc1ccc([C@H]2CC[C@H](CN(c3cc(-c4coc(C5CC5)n4)ccn3)C(=O)[C@H]3CC[C@H](OC(=O)N4CC(S(C)(=O)=O)C4)CC3)CC2)nc1C [Compound 6.61],≤ 250

# Further lines, results first:
row,EC50 [nM],SMILES
1,≤ 250,COc1ccc([C@H]2CC[C@H](CN(c3cc(-c4coc(C5CC5)n4)ccn3)C(=O)[C@H]3CC[C@H](OC(=O)NCCCO)CC3)CC2)nc1C [Compound 6.62]
2,≤ 250,COCCN(C)C(=O)O[C@H]1CC[C@H](C(=O)N(C[C@H]2CC[C@H](c3ccc(OC)c(C)n3)CC2)c2cc(-c3coc(C4CC4)n3)ccn2)CC1 [Compound 6.63]
3,≤ 250,"COc1ccc([C@H]2CC[C@H](CN(c3cc(-c4coc(C5CC5)n4)ccn3)C(=O)[C@H]3CC[C@H](OC(=O)N4CCN(C)CC4)CC3)CC2)cc1C [Compound 6.64, trans-4-((4-(2-Cyclopropyloxazol-4-yl)pyridine-2-yl)((trans-4-(4-methoxy-3-methylphenyl)cyclohexyl)methyl)carbamoyl)cyclohexyl 4-methylpiperazine-1-carboxylate]"
4,≤ 250,"COc1ccc([C@H]2CC[C@H](CN(c3cc(-c4coc(C5CC5)n4)ccn3)C(=O)[C@H]3CC[C@H](OC(=O)N4CCN(C)CC4)CC3)CC2)nc1C [Compound 6.65, trans-4-((4-(2-Cyclopropyloxazol-4-yl)pyridine-2-yl)((trans-4-(5-methoxy-6-methylpyridin-2-yl)cyclohexyl)methyl)carbamoyl)cyclohexyl 4-methylpiperazine-1-carboxylate]"
5,250 to 1000,"COc1ccc([C@H]2CC[C@H](CN(c3cc(-c4coc(C5CC5)n4)ccn3)C(=O)[C@H]3CC[C@H](OC(=O)NC[C@H](O)CO)CC3)CC2)nc1C [Compound 6.66, trans-4-((4-(2-Cyclopropyloxazol-4-yl)pyridine-2-yl)((trans-4-(5-methoxy-6-methylpyridin-2-yl)cyclohexyl)methyl)carbamoyl)cyclohexyl ((S)-2,3-dihydroxypropyl)carbamate]"
6,≤ 250,"COc1ccc([C@H]2CC[C@H](CN(c3cc(-c4coc(C5CC5)n4)ccn3)C(=O)[C@H]3CC[C@H](OC(=O)N(C)CC(C)O)CC3)CC2)nc1C (stereo partly drawn) [Compound 6.67, trans-4-((4-(2-Cyclopropyloxazol-4-yl)pyridin-2-yl)((trans-4-(5-methoxy-6-methylpyridin-2-yl)cyclohexyl)methyl)carbamoyl)cyclohexyl(2-hydroxypropyl)(methyl)carbamate]"
7,≤ 250,"COc1ccc([C@H]2CC[C@H](CN(c3cc(-c4coc(C5CC5)n4)ccn3)C(=O)[C@H]3CC[C@H](OC(=O)NCC(C)(O)C(C)C)CC3)CC2)nc1C (stereo partly drawn) [Compound 6.68, trans-4-((4-(2-Cyclopropyloxazol-4-yl)pyridin-2-yl)((trans-4-(5-methoxy-6-methylpyridin-2-yl)cyclohexyl)methyl)carbamoyl)cyclohexyl (2-hydroxy-2,3-dimethylbutyl)carbamate]"
8,≤ 250,"CCC(C)(O)CNC(=O)O[C@H]1CC[C@H](C(=O)N(C[C@H]2CC[C@H](c3ccc(OC)c(C)n3)CC2)c2cc(-c3coc(C4CC4)n3)ccn2)CC1 (stereo partly drawn) [Compound 6.69, trans-4-((4-(2-Cyclopropyloxazol-4-yl)pyridin-2-yl)((trans-4-(5-methoxy-6-methylpyridin-2-yl)cyclohexyl)methyl)carbamoyl)cyclohexyl (2-hydroxy-2-methylbutyl)carbamate]"
9,≤ 250,"COc1ccc([C@H]2CC[C@H](CN(c3cc(-c4coc(C5CC5)n4)ccn3)C(=O)[C@H]3CC[C@H](OC(=O)NCC(C)(C)O)CC3)CC2)nc1C [Compound 6.70, trans-4-((4-(2-Cyclopropyloxazol-4-yl)pyridin-2-yl)((trans-4-(5-methoxy-6-methylpyridin-2-yl)cyclohexyl)methyl)carbamoyl)cyclohexyl (2-hydroxy-2-methylpropyl)carbamate]"
10,≤ 250,"COc1ccc([C@H]2CC[C@H](CN(c3cc(-c4coc(C5CC5)n4)ccn3)C(=O)[C@H]3CC[C@H](OC(=O)NC(C)CO)CC3)CC2)nc1C (stereo partly drawn) [Compound 6.71, trans-4-((4-(2-Cyclopropyloxazol-4-yl)pyridin-2-yl)((trans-4-(5-methoxy-6-methylpyridin-2-yl)cyclohexyl)methyl)carbamoyl)cyclohexyl (1-hydroxypropan-2-yl)carbamate]"
11,≤ 250,"COc1ccc([C@H]2CC[C@H](CN(c3cc(-c4coc(C5CC5)n4)ccn3)C(=O)[C@H]3CC[C@H](OC(=O)NCC(C)O)CC3)CC2)nc1C (stereo partly drawn) [Compound 6.72, trans-4-((4-(2-Cyclopropyloxazol-4-yl)pyridin-2-yl)((trans-4-(5-methoxy-6-methylpyridin-2-yl)cyclohexyl)methyl)carbamoyl)cyclohexyl (2-hydroxypropyl)carbamate]"
12,≤ 250,"COc1ccc([C@H]2CC[C@H](CN(c3cc(-c4coc(C5CC5)n4)ccn3)C(=O)[C@H]3CC[C@H](OC(=O)NC(C)C(C)O)CC3)CC2)nc1C (stereo partly drawn) [Compound 6.73, trans-4-((4-(2-Cyclopropyloxazol-4-yl)pyridin-2-yl)((trans-4-(5-methoxy-6-methylpyridin-2-yl)cyclohexyl)methyl)carbamoyl)cyclohexyl (3-hydroxybutan-2-yl)carbamate]"
